Activity calls are given as the source filed them. The calls are words filed in the database; no cut-off is given here.
What was measured:
[1] = system: NCI-H1299; test: cells; settings: Homo sapiens, NCI-H1299, 48 h
Description: Antiproliferative activity against human NCI-H1299 cells assessed as inhibition of cell growth incubated for 48 hrs by MTT assay

[2] = molecular target: Dual specificity protein kinase CLK3 (Homo sapiens, UniProt P49761); test: Inhibition of CLK3 (unknown origin) by ADP-Glo assay
[3] = molecular target: T1, Dual specificity protein kinase CLK2 (Homo sapiens, UniProt P49760); test: Inhibition of CLK2 (unknown origin) by ADP-Glo assay
Target sequence in this assay (P49760 whole entry): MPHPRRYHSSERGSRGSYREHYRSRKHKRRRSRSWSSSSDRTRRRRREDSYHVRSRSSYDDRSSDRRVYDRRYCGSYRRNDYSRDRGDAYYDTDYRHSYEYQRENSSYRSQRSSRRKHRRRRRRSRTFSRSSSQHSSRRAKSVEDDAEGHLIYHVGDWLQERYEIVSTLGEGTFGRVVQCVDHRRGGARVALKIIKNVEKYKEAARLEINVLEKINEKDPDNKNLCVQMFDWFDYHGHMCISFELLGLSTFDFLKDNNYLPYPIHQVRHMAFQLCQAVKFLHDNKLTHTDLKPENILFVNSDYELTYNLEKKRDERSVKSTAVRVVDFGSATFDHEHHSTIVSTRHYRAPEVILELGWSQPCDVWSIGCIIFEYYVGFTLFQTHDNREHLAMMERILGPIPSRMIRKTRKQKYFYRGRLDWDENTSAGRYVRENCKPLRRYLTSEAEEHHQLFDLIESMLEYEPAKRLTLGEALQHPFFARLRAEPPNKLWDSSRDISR

[4] = system: NCI-H1299; test: Inhibition of colony formation in human NCI-H1299 cells at 1 uM incubated for 7 days by crystal violet staining based analysis; type: functional, cell-based; settings: time 7.0 day
[5] = molecular target: T1, Dual specificity protein kinase CLK2; settings: dose 20.0 nM
Target sequence in this assay (P49760 whole entry, looked up): as the sequence (P49760 whole entry) above
Description: Inhibition of CLK2 (unknown origin) at 20 nM by ADP-Glo assay relative to control

[6] = system: Osimertinib-resistant NCI-H1975 cell; test: cells; settings: Homo sapiens, 48 h
Description: Antiproliferative activity against human Osimertinib-resistant NCI-H1975 cell assessed as inhibition of cell growth incubated for 48 hrs by MTT assay

[7] = system: NCI-H1975; test: cells; settings: Homo sapiens, NCI-H1975, 48 h
Description: Antiproliferative activity against human NCI-H1975 cells assessed as inhibition of cell growth incubated for 48 hrs by MTT assay

[8] = cells; settings: Homo sapiens, Osimertinib-resistant HCC827AR cell, 48 h
Description: Antiproliferative activity against human Osimertinib-resistant HCC827AR cell assessed as inhibition of cell growth incubated for 48 hrs by MTT assay

[9] = system: HCC827; test: cells; settings: Homo sapiens, HCC827, 48 h
Description: Antiproliferative activity against human HCC827 cells assessed as inhibition of cell growth incubated for 48 hrs by MTT assay

[10] = system: A549; test: cells; settings: Homo sapiens, A549, 48 h
Description: Antiproliferative activity against human A549 cells assessed as inhibition of cell growth incubated for 48 hrs by MTT assay

Dual specificity protein kinase CLK3, sequence (P49761 whole entry): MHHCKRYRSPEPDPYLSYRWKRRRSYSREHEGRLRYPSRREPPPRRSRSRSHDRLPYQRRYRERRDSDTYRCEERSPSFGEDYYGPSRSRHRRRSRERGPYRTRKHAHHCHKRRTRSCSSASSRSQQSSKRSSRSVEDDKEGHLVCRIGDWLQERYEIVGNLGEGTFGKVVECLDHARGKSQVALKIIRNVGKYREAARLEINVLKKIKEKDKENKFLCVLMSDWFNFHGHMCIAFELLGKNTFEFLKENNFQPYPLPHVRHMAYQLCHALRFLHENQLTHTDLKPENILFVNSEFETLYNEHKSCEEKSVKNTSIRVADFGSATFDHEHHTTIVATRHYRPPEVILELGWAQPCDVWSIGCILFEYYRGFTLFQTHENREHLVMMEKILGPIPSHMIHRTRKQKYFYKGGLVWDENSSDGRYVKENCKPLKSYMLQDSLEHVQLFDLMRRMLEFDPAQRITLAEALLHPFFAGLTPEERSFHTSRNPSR

Row | IC50 [1] | Structure (SMILES) | also measured
1 | 1530 nM | CC(C)CC(=O)Nc1cncc(-c2ccc3[nH]nc(-c4nc(-c5ccco5)c(-c5ccco5)[nH]4)c3c2)c1 | –
2 | 450 nM | Cc1nc(-c2n[nH]c3ccc(-c4cncc(OC[C@@H](N)CC(C)C)c4)cc23)[nH]c1-c1ccccc1 | –
3 | 1150 nM | CC(C)C[C@H](N)COc1cncc(-c2ccc3[nH]nc(-c4nc(-c5ccsc5)c[nH]4)c3c2)c1 | –
4 | 3070 nM | CC(C)CC(=O)Nc1cncc(-c2ccc3[nH]nc(-c4nc(-c5cccc(C(F)(F)F)c5)c[nH]4)c3c2)c1 | –
5 | 6580 nM | FC1(F)CCN(Cc2cncc(-c3ccc4[nH]nc(-c5nc(-c6ccccc6)c(-c6ccccc6)[nH]5)c4c3)c2)C1 | –
6 | 2380 nM | CC(C)C[C@H](N)COc1cncc(-c2ccc3[nH]nc(-c4nc(-c5ccccc5)c(-c5ccccc5)[nH]4)c3c2)c1 | –
7 | 2660 nM | FC1(F)CCN(Cc2cncc(-c3ccc4[nH]nc(-c5nc(-c6cccc(C(F)(F)F)c6)c[nH]5)c4c3)c2)C1 | –
8 | 1680 nM | CC(C)C[C@H](N)COc1cncc(-c2ccc3[nH]nc(-c4nc(-c5ccco5)c(-c5ccco5)[nH]4)c3c2)c1 | –

The remaining lines, values behind:

Row | Structure (SMILES) | IC50 [1] | also measured
9 | Cc1nc(-c2n[nH]c3ccc(-c4cncc(NC(=O)CC(C)C)c4)cc23)[nH]c1-c1ccccc1 | 1380 nM | –
10 | CCc1[nH]c(-c2n[nH]c3ccc(-c4cncc(NC(=O)CC(C)C)c4)cc23)nc1C | 1620 nM | –
11 | Cc1[nH]nc2ccc(-c3cncc(OC[C@@H](N)CC(C)C)c3)cc12 | 2510 nM | IC50 [2]: > 100 nM; IC50 [3]: 4.1 nM; inhibition [4]: inactive; inhibition [5]: 98.5%; IC50 [6]: 1920 nM; IC50 [7]: 1720 nM; IC50 [8]: 3670 nM; IC50 [9]: 3950 nM; IC50 [10]: 3950 nM
12 | FC1(F)CCN(Cc2cncc(-c3ccc4[nH]nc(-c5nc(-c6cccnc6)c[nH]5)c4c3)c2)C1 | 260 nM | –
13 | CC(C)CC(=O)Nc1cncc(-c2ccc3[nH]nc(-c4nc(-c5ccsc5)c[nH]4)c3c2)c1 | 910 nM | –
14 | CC(C)C[C@H](N)COc1cncc(-c2ccc3[nH]nc(-c4nc(-c5ccco5)c[nH]4)c3c2)c1 | 480 nM | –
15 | CC(C)CC(=O)Nc1cncc(-c2ccc3[nH]nc(-c4nc(-c5ccco5)c[nH]4)c3c2)c1 | 1420 nM | –
16 | CC(C)CC(=O)Nc1cncc(-c2ccc3[nH]nc(-c4nc(-c5cccnc5)c[nH]4)c3c2)c1 | 820 nM | –
17 | CC(C)C[C@H](N)COc1cncc(-c2ccc3[nH]nc(-c4nc(-c5cccc(C(F)(F)F)c5)c[nH]4)c3c2)c1 | 1160 nM | –
18 | CC(C)C[C@H](N)COc1cncc(-c2ccc3[nH]nc(-c4nc(-c5cccnc5)c[nH]4)c3c2)c1 | 700 nM | –
19 | FC1(F)CCN(Cc2cncc(-c3ccc4[nH]nc(-c5nc(-c6ccsc6)c[nH]5)c4c3)c2)C1 | 1380 nM | –
20 | FC1(F)CCN(Cc2cncc(-c3ccc4[nH]nc(-c5nc(-c6ccccc6)c[nH]5)c4c3)c2)C1 | 1270 nM | –
21 | Cc1nc(-c2n[nH]c3ccc(-c4cncc(CN5CCC(F)(F)C5)c4)cc23)[nH]c1-c1ccccc1 | 1620 nM | –
22 | FC1(F)CCN(Cc2cncc(-c3ccc4[nH]nc(-c5nc(-c6ccco6)c[nH]5)c4c3)c2)C1 | 720 nM | –

Reference: ChEMBL document CHEMBL6092179, “Discovery of CLKs inhibitors for the treatment of non-small cell lung cancer” (Eur J Med Chem, 2024)
